The test system of series [1] is Mus musculus. The series is described as follows: Neuroprotective activity in permanent middle cerebral artery occlusion model of CD-1 mouse brain assessed as reduction of infarct volume administered subcutaneously by using Alzet mini-osmotic pumps for 21 days before and 48 hrs after pMCAO by TTC staining. Type of series: functional, organism-based.
The subject of series [2] is Peritoneal macrophage cell. The series is described as follows: Inhibition of LPS/INFgamma-induced nitric oxide production in CD-1 mouse peritoneal macrophages after 48 hrs by Griess reaction. As to conditions: CD-1, Peritoneal macrophage cell.
Series [3] is described as follows: Cytotoxicity against CD-1 mouse peritoneal macrophages assessed as survival rate at 1 uM after 48 hrs by SRB assay. The conditions noted are these: read-out: Activity. Type of series: cell-based, Peritoneal macrophage cell. On the technique in general: The SRB assay estimates cell density from bound dye.
The target in series [4] is T1, Nitric oxide synthase, inducible (Mus musculus, UniProt P29477).
T1 sequence (P29477 whole entry): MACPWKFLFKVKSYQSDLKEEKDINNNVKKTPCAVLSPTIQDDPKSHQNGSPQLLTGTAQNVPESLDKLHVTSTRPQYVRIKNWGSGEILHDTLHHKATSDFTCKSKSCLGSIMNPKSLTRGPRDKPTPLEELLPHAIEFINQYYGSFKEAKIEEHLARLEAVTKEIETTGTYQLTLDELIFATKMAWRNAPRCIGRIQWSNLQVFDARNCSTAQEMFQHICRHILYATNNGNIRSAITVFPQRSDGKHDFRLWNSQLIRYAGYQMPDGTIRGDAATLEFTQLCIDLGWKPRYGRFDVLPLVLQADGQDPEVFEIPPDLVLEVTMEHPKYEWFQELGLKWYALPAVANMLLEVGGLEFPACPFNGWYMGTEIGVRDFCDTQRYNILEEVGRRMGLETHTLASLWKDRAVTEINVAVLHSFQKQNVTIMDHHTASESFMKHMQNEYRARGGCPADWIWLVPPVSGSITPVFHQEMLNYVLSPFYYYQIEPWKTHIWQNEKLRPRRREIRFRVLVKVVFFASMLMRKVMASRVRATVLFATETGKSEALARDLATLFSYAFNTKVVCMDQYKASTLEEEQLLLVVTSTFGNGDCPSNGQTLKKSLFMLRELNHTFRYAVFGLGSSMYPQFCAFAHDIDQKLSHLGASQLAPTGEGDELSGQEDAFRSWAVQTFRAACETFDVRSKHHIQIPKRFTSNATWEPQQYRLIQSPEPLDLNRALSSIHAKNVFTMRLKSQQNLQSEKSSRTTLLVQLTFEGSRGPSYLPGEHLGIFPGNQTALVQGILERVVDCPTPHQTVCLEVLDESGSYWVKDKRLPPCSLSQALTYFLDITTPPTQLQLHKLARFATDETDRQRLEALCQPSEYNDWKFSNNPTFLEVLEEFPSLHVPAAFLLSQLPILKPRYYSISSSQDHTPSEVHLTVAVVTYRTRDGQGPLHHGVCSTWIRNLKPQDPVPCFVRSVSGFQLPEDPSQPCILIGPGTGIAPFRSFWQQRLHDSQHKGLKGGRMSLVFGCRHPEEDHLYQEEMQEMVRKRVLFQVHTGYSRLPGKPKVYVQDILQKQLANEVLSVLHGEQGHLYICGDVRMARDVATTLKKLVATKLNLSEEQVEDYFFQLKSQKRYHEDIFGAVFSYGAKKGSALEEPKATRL
The series is described as follows: Inhibition of mouse recombinant iNOS activity assessed as conversion of [14C]-L-arginine to [14C]-L-citrulline by liquid scintillation counting.

The nature of series [5]: Cytotoxicity against CD-1 mouse peritoneal macrophages assessed as survival rate at 0.1 uM after 48 hrs by SRB assay. It is filed as cell-based, Peritoneal macrophage cell. The conditions noted are these: read-out: Activity.
Series [6] is described as follows: Cytotoxicity against CD-1 mouse peritoneal macrophages assessed as survival rate at 10 uM after 48 hrs by SRB assay. Type of series: cell-based, Peritoneal macrophage cell. As to conditions: read-out: Activity.
Series [7] concerns the target Nitric oxide synthase, inducible (Homo sapiens, UniProt P35228). The series is described as follows: Inhibition of human iNOS.
Series [8] in a line: Cytotoxicity against CD-1 mouse peritoneal macrophages assessed as survival rate at 100 uM after 48 hrs by SRB assay. It is filed as cell-based, Peritoneal macrophage cell. As to conditions: read-out: Activity.
Series [9] has as its target Nitric oxide synthase, inducible (Rattus norvegicus, UniProt Q06518). The series is described as follows: Inhibition of rat iNOS.

Active and inactive are the calls of the source. The calls are words filed in the database; no cut-off is given here.

Results on 2 compounds are retold here after ChEMBL document CHEMBL2040724, “New synthesis and promising neuroprotective role in experimental ischemic stroke of ONO-1714” (Eur J Med Chem, 2012).

Nitric oxide synthase, inducible (Rattus norvegicus, UniProt Q06518), sequence (Q06518 whole entry): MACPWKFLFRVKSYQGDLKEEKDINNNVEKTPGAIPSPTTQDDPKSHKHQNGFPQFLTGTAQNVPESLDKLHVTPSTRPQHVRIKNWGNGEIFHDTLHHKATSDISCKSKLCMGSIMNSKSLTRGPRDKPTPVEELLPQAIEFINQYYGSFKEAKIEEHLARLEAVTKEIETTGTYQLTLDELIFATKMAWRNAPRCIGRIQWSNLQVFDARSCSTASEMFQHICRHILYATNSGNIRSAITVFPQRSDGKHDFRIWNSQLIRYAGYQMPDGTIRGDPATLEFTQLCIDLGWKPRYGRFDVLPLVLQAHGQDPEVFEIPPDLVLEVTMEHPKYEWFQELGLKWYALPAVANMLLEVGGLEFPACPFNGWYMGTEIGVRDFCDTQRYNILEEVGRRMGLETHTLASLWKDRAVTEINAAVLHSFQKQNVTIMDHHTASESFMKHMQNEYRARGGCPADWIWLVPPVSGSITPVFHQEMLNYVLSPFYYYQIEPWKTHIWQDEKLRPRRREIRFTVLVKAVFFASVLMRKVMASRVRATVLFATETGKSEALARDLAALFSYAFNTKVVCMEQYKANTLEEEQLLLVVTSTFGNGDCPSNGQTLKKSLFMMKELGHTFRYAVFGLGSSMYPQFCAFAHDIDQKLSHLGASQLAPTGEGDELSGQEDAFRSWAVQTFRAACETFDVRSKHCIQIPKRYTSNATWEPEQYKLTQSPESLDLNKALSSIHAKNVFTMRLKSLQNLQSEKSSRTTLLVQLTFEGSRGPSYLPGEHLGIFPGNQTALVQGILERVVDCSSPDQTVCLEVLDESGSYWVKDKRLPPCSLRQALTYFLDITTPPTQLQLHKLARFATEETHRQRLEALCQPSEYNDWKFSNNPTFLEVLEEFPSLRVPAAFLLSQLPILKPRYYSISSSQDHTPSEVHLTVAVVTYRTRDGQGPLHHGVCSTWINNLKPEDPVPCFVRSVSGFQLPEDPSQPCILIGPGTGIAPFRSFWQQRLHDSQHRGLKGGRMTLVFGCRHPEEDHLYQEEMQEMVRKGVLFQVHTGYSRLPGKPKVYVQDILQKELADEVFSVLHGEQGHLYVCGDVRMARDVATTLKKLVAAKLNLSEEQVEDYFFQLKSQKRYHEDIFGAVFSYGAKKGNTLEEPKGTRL
Nitric oxide synthase, inducible (Homo sapiens, UniProt P35228), sequence (P35228 whole entry): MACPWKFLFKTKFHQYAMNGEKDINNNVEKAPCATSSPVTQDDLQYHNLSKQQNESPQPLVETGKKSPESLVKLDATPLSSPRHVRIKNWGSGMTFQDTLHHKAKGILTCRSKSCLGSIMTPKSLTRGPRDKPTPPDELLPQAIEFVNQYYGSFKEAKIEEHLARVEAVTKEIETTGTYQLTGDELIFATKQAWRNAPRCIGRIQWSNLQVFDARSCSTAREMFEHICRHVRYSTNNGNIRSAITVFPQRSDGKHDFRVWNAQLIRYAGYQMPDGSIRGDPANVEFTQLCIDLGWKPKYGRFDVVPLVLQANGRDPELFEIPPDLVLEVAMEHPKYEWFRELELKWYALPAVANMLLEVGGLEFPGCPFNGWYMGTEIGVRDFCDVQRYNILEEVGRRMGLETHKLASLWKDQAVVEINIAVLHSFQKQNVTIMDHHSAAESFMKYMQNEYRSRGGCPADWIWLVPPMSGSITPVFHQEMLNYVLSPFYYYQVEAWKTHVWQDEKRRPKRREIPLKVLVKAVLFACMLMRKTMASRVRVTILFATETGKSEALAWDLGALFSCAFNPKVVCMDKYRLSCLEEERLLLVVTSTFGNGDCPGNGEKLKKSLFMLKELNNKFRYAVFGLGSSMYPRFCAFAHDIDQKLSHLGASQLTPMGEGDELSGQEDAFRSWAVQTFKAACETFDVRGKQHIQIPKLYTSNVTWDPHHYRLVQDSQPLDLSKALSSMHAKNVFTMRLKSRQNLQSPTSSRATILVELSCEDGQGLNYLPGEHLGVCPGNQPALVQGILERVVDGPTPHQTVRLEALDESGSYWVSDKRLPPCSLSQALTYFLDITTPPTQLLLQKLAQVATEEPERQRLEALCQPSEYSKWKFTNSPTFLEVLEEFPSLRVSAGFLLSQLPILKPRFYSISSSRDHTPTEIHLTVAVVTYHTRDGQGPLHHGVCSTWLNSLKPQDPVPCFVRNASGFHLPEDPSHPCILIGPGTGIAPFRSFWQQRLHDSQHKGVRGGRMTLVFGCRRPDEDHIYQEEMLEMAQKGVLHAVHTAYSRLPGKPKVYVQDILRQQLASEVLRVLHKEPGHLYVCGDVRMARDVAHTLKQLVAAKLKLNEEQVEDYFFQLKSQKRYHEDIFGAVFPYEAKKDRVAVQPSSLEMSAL

As usually defined, the IC50 is the concentration at which inhibition is half-maximal. Turning to `C[C@H]1CC(N)=N[C@@H]2[C@H](Cl)[C@@H]21`, the result in series [1] was Active. The IC50 in [2] was found to be 820 nM.
Broadly, the Ki is the equilibrium dissociation constant of an inhibitor or competing ligand from its target. On to `C[C@H]1CC(=N)N[C@@H]2[C@H](Cl)[C@@H]21`, for which, in series [3], the viability at 48 h, 1 µM worked out at 93.6%. In series [4], the IC50 stood at 11 nM. Besides, the viability at 48 h, 0.1 µM in [5] is 98.4%. The viability at 48 h, 10 µM in series [6] came out at 99.1%. Also, the Ki in [7] and in series [9] was 1.8 nM each time. Also, in series [8], the viability at 48 h, 100 µM stood at 97.2%.
